Test results reported in the supplement of paper PMC5908809.

Experiments:
[1] = tested on: normal NK cells expanded with K562-aAPC; experiment: drug sensitivity score (DSS) (DSS units); higher = more sensitive; extreme values may be limits of the assay; details: 72 h; IL-2 2.5 ng/mL
Procedure: (§1)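 Drug sensitivity and resistance testing on K562-aAPC-expanded normal NK cells: 5 concentrations (10-fold steps over a 10,000-fold range), 72 h at 37 °C, viability by CellTiter-Glo normalised to DMSO and benzethonium chloride controls; DSS from the fitted curve.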

[2] = tested on: normal NK cells expanded with K562-aAPC; experiment: percent inhibition of viability; higher = more inhibition; details: 72 h, IL-2 2.5 ng/mL
Procedure: as §1

[3] = tested on: NK-92 (IL-2 2.5 ng/mL); experiment: as above; details: 72 h
[4] = tested on: normal primary NK cells, pool 1 (3 donors), resting (IL-2 0 ng/mL); experiment: as above; details: 72 h
[5] = tested on: IMC-1 (IL-2 20 ng/mL); experiment: as above; details: 72 h
[6] = tested on: KAI3 (IL-2 2.5 ng/mL); experiment: as above; details: 72 h
[7] = tested on: NK-YS (IL-2 2.5 ng/mL); experiment: as above; details: 72 h
[8] = tested on: YT (IL-2 2.5 ng/mL); experiment: as above; details: 72 h
[9] = tested on: normal primary NK cells, pool 2 (3 donors) (IL-2 2.5 ng/mL); experiment: as above; details: 72 h
[10] = tested on: DERL-7 (IL-2 2.5 ng/mL); experiment: as above; details: 72 h
[11] = tested on: SNK-6 (IL-2 2.5 ng/mL); experiment: as above; details: 72 h
[12] = tested on: normal primary NK cells, pool 1 (3 donors) (IL-2 2.5 ng/mL); experiment: as above; details: 72 h
[13] = tested on: normal primary NK cells, pool 3 (3 donors) (IL-2 2.5 ng/mL); experiment: as above; details: 72 h
[14] = tested on: KHYG-1 (IL-2 2.5 ng/mL); experiment: as above; details: 72 h
[15] = tested on: NKL (IL-2 2.5 ng/mL); experiment: as above; details: 72 h
[16] = tested on: NK-92 (IL-2 2.5 ng/mL); experiment: drug sensitivity score (DSS) (DSS units); higher = more sensitive; extreme values may be limits of the assay; details: 72 h
[17] = tested on: normal primary NK cells, pool 1 (3 donors), resting (IL-2 0 ng/mL); experiment: as above; details: 72 h
[18] = tested on: IMC-1 (IL-2 20 ng/mL); experiment: as above; details: 72 h
[19] = tested on: KAI3 (IL-2 2.5 ng/mL); experiment: as above; details: 72 h
[20] = tested on: NK-YS (IL-2 2.5 ng/mL); experiment: as above; details: 72 h
[21] = tested on: YT (IL-2 2.5 ng/mL); experiment: as above; details: 72 h
[22] = tested on: normal primary NK cells, pool 2 (3 donors) (IL-2 2.5 ng/mL); experiment: as above; details: 72 h
[23] = tested on: DERL-7 (IL-2 2.5 ng/mL); experiment: as above; details: 72 h
[24] = tested on: SNK-6 (IL-2 2.5 ng/mL); experiment: as above; details: 72 h
[25] = tested on: normal primary NK cells, pool 1 (3 donors) (IL-2 2.5 ng/mL); experiment: as above; details: 72 h
[26] = tested on: normal primary NK cells, pool 3 (3 donors) (IL-2 2.5 ng/mL); experiment: as above; details: 72 h
[27] = tested on: KHYG-1 (IL-2 2.5 ng/mL); experiment: as above; details: 72 h
[28] = tested on: NKL (IL-2 2.5 ng/mL); experiment: as above; details: 72 h

COc1cc2c(cc1-c1c(C)noc1C)ncc1[nH]c(=O)n([C@H](C)c3ccccn3)c12 [I-BET151] (max concentration tested 10000 nM)
Details	drug sensitivity score
[1]	6.57
[16]	1.57
[17]	7.37
[18]	6.36
[19]	7.74
[20]	11.1
[21]	8.36
[22]	8.63
[23]	17.4
[24]	16.1
[25]	9.37
[26]	6.22
[27]	14.1
[28]	12.4

percent inhibition of viability [%]
Details	1 nM	10 nM	100 nM	1000 nM	10000 nM
[2]	-4.2	-5.61	-3.72	17.1	70.7
[3]	-10.1	-10.2	-33.2	-7	39.9
[4]	11.1	15.2	12.9	26.3	69
[5]	-10.4	-6.13	-13.8	11.4	80.4
[6]	-1.82	-7.24	-5.5	36.7	60.8
[7]	-6.04	0.41	9.82	50.3	86
[8]	-4.09	-3.54	-0.4	36.2	69.4
[9]	-6.96	-4.14	1.63	30.1	81.5
[10]	-3.21	-1.77	20	81.5	100
[11]	-9.22	-7.3	19.2	71.4	58.4
[12]	4.94	14.1	16.8	34.1	86.3
[13]	0.13	-4.21	7.82	12.9	73.7
[14]	-6.56	-3.86	2.8	72	98.6
[15]	-4.89	-7.31	11.6	58.9	75

O=C(CCBr)N1CCN(C(=O)CCBr)CC1 [Pipobroman] (max concentration tested 10000 nM)
Details	drug sensitivity score
[1]	1.23
[16]	1.49
[17]	6.82
[18]	0.19
[19]	0.46
[20]	1.85
[21]	0.07
[22]	0
[23]	0
[24]	0
[25]	0
[26]	0.45
[27]	0.42
[28]	1.54

percent inhibition of viability [%]
Details	1 nM	10 nM	100 nM	1000 nM	10000 nM
[2]	-6.43	-6.37	-5.59	7.79	18.1
[3]	-22.2	-18.9	-1.01	4.98	22.7
[4]	2.78	-3.45	22.7	19.1	26.8
[5]	-6.08	-8.46	-2.84	4.89	11.6
[6]	-6.26	-3.77	3.05	9.16	13.5
[7]	-6.73	-7.25	-3.41	11.6	20.9
[8]	-7.45	-10.7	-5.22	0.28	12.2
[9]	-5.41	-3.61	2.8	4.47	2.02
[10]	-7.31	-1.37	2	-0.47	-5.96
[11]	-14.3	-17.7	-17.4	-17.5	-6.39
[12]	1.85	-2.09	11.8	-0.73	2.49
[13]	-9.04	-2.96	2.05	2.18	15.1
[14]	-9.07	-13.9	-7.89	3.77	13.7
[15]	-27.2	-17.8	-14.3	16.6	15.7
